# Assay results published in ChEMBL document CHEMBL3885861, “Open TG-GATES”.
# Species on record: Rattus norvegicus
# Experiment: Open TG-GATES - Regimen: Daily Repeat
# Type: toxicity, organism-based, Sprague-Dawley
# Parameters: regimen Daily Repeat, gender Male, age 6 weeks
# Details: in vivo, po, 40 mg/kg, route gavage, dose level Low; for APTT / Bas / Eos / Fbg / Hb / Ht / Lym / MCH / MCHC / MCV / Mono / Neu / PT / Plat / RBC / Ret / WBC: tissue Blood; for KIDNEY_L / KIDNEY_R / KIDNEY_TOTAL: tissue Kidney; for LIVER: tissue Liver; for A/G / ALP / ALT / AST / BUN / CRE / Ca / Cl / DBIL / GLC / IP / K / LDH / Na / PL / RALB / TBIL / TC / TG / TP / gamma-GTP: tissue Plasma
structure (smiles),measurement,setting,value
COc1ccc(Cc2nccc3cc(OC)c(OC)cc23)cc1OC [PAPAVERINE],TERMINAL_BW,"72 h, time 3 day",246.9 g
same,APTT,"72 h, time 3 day",21.6 s
same,Bas,"72 h, time 3 day",0%
same,Eos,"72 h, time 3 day",0.6%
same,Fbg,"72 h, time 3 day",325.8 mg/dL
same,Hb,"72 h, time 3 day",13.1 g/dL
same,Ht,"72 h, time 3 day",39.6%
same,Lym,"72 h, time 3 day",77.6%
same,MCH,"72 h, time 3 day",21.1 pg
same,MCHC,"72 h, time 3 day",33.2%
same,MCV,"72 h, time 3 day",63.6 fL
same,Mono,"72 h, time 3 day",2.8%
same,Neu,"72 h, time 3 day",18%
same,PT,"72 h, time 3 day",15.5 s
same,Plat,"72 h, time 3 day",124.7 x10_4/uL
same,RBC,"72 h, time 3 day",624.6 x10_4/ul
same,Ret,"72 h, time 3 day",6.8%
same,WBC,"72 h, time 3 day",102.4 x10_2/uL
same,KIDNEY_L,"72 h, time 3 day",1 g
same,KIDNEY_R,"72 h, time 3 day",1.1 g
same,KIDNEY_TOTAL,"72 h, time 3 day",2.1 g
same,LIVER,"72 h, time 3 day",11.6 g
same,A/G,"72 h, time 3 day",1.2
same,ALP,"72 h, time 3 day",1776.4 IU/L
same,ALT,"72 h, time 3 day",44.2 IU/L
same,AST,"72 h, time 3 day",73 IU/L
same,BUN,"72 h, time 3 day",17 mg/dL
same,CRE,"72 h, time 3 day",0.1 mg/dL
same,Ca,"72 h, time 3 day",10.9 mg/dL
same,Cl,"72 h, time 3 day",107.6 meq/L
same,DBIL,"72 h, time 3 day",0 mg/dL
same,GLC,"72 h, time 3 day",185.4 mg/dL
same,IP,"72 h, time 3 day",7.5 mg/dL
same,K,"72 h, time 3 day",4.5 meq/L
same,LDH,"72 h, time 3 day",184 IU/L
same,Na,"72 h, time 3 day",142.2 meq/L
same,PL,"72 h, time 3 day",153.4 mg/dL
same,RALB,"72 h, time 3 day",3 g/dL
same,TBIL,"72 h, time 3 day",0.008 mg/dL
same,TC,"72 h, time 3 day",77.8 mg/dL
same,TG,"72 h, time 3 day",126 mg/dL
same,TP,"72 h, time 3 day",5.6 g/dL
same,gamma-GTP,"72 h, time 3 day",1.4 IU/L
same,TERMINAL_BW,"[…], time 7 day",281.8 g
same,TERMINAL_BW,"[…], time 14 day",316.9 g
same,TERMINAL_BW,"[…], time 28 day",422.2 g
same,APTT,"[…], time 7 day",21.6 s
same,Bas,"[…], time 7 day",0%
same,Eos,"[…], time 7 day",1%
same,Fbg,"[…], time 7 day",317.8 mg/dL
same,Hb,"[…], time 7 day",13.1 g/dL
same,Ht,"[…], time 7 day",38.8%
same,Lym,"[…], time 7 day",80.2%
same,MCH,"[…], time 7 day",20.8 pg
same,MCHC,"[…], time 7 day",33.7%
same,MCV,"[…], time 7 day",61.8 fL
same,Mono,"[…], time 7 day",2.2%
same,Neu,"[…], time 7 day",15.8%
same,PT,"[…], time 7 day",15.4 s
same,Plat,"[…], time 7 day",123 x10_4/uL
same,RBC,"[…], time 7 day",628 x10_4/ul
same,Ret,"[…], time 7 day",6.3%
same,WBC,"[…], time 7 day",124.1 x10_2/uL
same,APTT,"[…], time 14 day",23 s
same,Bas,"[…], time 14 day",0%
same,Eos,"[…], time 14 day",0.6%
same,Fbg,"[…], time 14 day",342.6 mg/dL
same,Hb,"[…], time 14 day",14.2 g/dL
same,Ht,"[…], time 14 day",41.8%
same,Lym,"[…], time 14 day",79%
same,MCH,"[…], time 14 day",19.7 pg
same,MCHC,"[…], time 14 day",34%
same,MCV,"[…], time 14 day",57.9 fL
same,Mono,"[…], time 14 day",2%
same,Neu,"[…], time 14 day",16.6%
same,PT,"[…], time 14 day",15.6 s
same,Plat,"[…], time 14 day",111.2 x10_4/uL
same,RBC,"[…], time 14 day",722.6 x10_4/ul
same,Ret,"[…], time 14 day",4.6%
same,WBC,"[…], time 14 day",128.3 x10_2/uL
same,APTT,"[…], time 28 day",25.2 s
same,Bas,"[…], time 28 day",0%
same,Eos,"[…], time 28 day",1%
same,Fbg,"[…], time 28 day",319 mg/dL
same,Hb,"[…], time 28 day",14.5 g/dL
same,Ht,"[…], time 28 day",43.8%
same,Lym,"[…], time 28 day",80%
same,MCH,"[…], time 28 day",19.1 pg
same,MCHC,"[…], time 28 day",33.1%
same,MCV,"[…], time 28 day",57.7 fL
same,Mono,"[…], time 28 day",1.8%
same,Neu,"[…], time 28 day",15.8%
same,PT,"[…], time 28 day",15.8 s
same,Plat,"[…], time 28 day",105.3 x10_4/uL
same,RBC,"[…], time 28 day",760.4 x10_4/ul
same,Ret,"[…], time 28 day",3.1%
same,WBC,"[…], time 28 day",151.9 x10_2/uL
same,KIDNEY_L,"[…], time 7 day",1.2 g
same,KIDNEY_R,"[…], time 7 day",1.2 g
same,KIDNEY_TOTAL,"[…], time 7 day",2.4 g
same,KIDNEY_L,"[…], time 14 day",1.2 g
same,KIDNEY_R,"[…], time 14 day",1.2 g
same,KIDNEY_TOTAL,"[…], time 14 day",2.5 g
same,KIDNEY_L,"[…], time 28 day",1.4 g
same,KIDNEY_R,"[…], time 28 day",1.5 g
same,KIDNEY_TOTAL,"[…], time 28 day",2.9 g
same,LIVER,"[…], time 7 day",13.2 g
same,LIVER,"[…], time 14 day",14.1 g
same,LIVER,"[…], time 28 day",17.3 g
same,A/G,"[…], time 7 day",1.2
same,ALP,"[…], time 7 day",1841.6 IU/L
same,ALT,"[…], time 7 day",40.6 IU/L
same,AST,"[…], time 7 day",67.2 IU/L
same,BUN,"[…], time 7 day",19.8 mg/dL
same,CRE,"[…], time 7 day",0.1 mg/dL
same,Ca,"[…], time 7 day",10.8 mg/dL
same,Cl,"[…], time 7 day",106 meq/L
same,DBIL,"[…], time 7 day",0 mg/dL
same,GLC,"[…], time 7 day",189.6 mg/dL
same,IP,"[…], time 7 day",6.8 mg/dL
same,K,"[…], time 7 day",4.5 meq/L
same,LDH,"[…], time 7 day",157 IU/L
same,Na,"[…], time 7 day",140.8 meq/L
same,PL,"[…], time 7 day",155.6 mg/dL
same,RALB,"[…], time 7 day",3 g/dL
same,TBIL,"[…], time 7 day",0.002 mg/dL
same,TC,"[…], time 7 day",76.4 mg/dL
same,TG,"[…], time 7 day",132.6 mg/dL
same,TP,"[…], time 7 day",5.5 g/dL
same,gamma-GTP,"[…], time 7 day",2.6 IU/L
same,A/G,"[…], time 14 day",1.1
same,ALP,"[…], time 14 day",1354 IU/L
same,ALT,"[…], time 14 day",40.6 IU/L
same,AST,"[…], time 14 day",67.4 IU/L
same,BUN,"[…], time 14 day",20.2 mg/dL
same,CRE,"[…], time 14 day",0.2 mg/dL
same,Ca,"[…], time 14 day",10.2 mg/dL
same,Cl,"[…], time 14 day",106.4 meq/L
same,DBIL,"[…], time 14 day",0 mg/dL
same,GLC,"[…], time 14 day",193.4 mg/dL
same,IP,"[…], time 14 day",6.9 mg/dL
same,K,"[…], time 14 day",4.2 meq/L
same,LDH,"[…], time 14 day",151.6 IU/L
same,Na,"[…], time 14 day",143 meq/L
same,PL,"[…], time 14 day",139.2 mg/dL
same,RALB,"[…], time 14 day",2.9 g/dL
same,TBIL,"[…], time 14 day",0.014 mg/dL
same,TC,"[…], time 14 day",64.2 mg/dL
same,TG,"[…], time 14 day",168 mg/dL
same,TP,"[…], time 14 day",5.7 g/dL
same,gamma-GTP,"[…], time 14 day",2 IU/L
same,A/G,"[…], time 28 day",1.1
same,ALP,"[…], time 28 day",1003.2 IU/L
same,ALT,"[…], time 28 day",36.4 IU/L
same,AST,"[…], time 28 day",62.2 IU/L
same,BUN,"[…], time 28 day",20 mg/dL
same,CRE,"[…], time 28 day",0.2 mg/dL
same,Ca,"[…], time 28 day",10.2 mg/dL
same,Cl,"[…], time 28 day",106 meq/L
same,DBIL,"[…], time 28 day",0 mg/dL
same,GLC,"[…], time 28 day",196 mg/dL
same,IP,"[…], time 28 day",6 mg/dL
same,K,"[…], time 28 day",4.1 meq/L
same,LDH,"[…], time 28 day",141.6 IU/L
same,Na,"[…], time 28 day",141.8 meq/L
same,PL,"[…], time 28 day",142.4 mg/dL
same,RALB,"[…], time 28 day",3.2 g/dL
same,TBIL,"[…], time 28 day",0.008 mg/dL
same,TC,"[…], time 28 day",68.6 mg/dL
same,TG,"[…], time 28 day",152.4 mg/dL
same,TP,"[…], time 28 day",6 g/dL
same,gamma-GTP,"[…], time 28 day",2.6 IU/L
